Measured values published in US20120165331A1, “Di/tri-aza-spiro-C9-C11alkanes” (priority 2010, published 2012).

What was measured:
[1] = biological target: T1, human orexin 1 receptor (Homo sapiens, UniProt O43613); assay: Radioligand binding assay ([3H]-SB649868 competition), human orexin 1 receptor; conditions: radioligand [3H]-SB649868; read-out: Binding hOx1R Kd
T1 construct: expressed in transfected cells
T1 sequence (O43613 1-425): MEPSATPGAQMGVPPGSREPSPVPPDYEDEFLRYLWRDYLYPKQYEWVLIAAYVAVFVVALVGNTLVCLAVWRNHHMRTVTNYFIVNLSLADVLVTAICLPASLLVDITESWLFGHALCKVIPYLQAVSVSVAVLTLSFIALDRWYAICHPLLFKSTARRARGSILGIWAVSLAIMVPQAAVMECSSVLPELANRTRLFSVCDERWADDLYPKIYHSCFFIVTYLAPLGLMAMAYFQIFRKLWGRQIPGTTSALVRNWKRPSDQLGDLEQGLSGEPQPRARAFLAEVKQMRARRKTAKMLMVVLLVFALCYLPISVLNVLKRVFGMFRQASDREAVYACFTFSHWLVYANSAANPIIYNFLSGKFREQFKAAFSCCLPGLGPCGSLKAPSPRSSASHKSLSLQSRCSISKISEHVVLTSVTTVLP
Experimental: (§1) Radioligand Binding Assay
(§2) For crude cell membrane preparations, cells (CHO, Chinese hamster ovary or HEK, human embryonic kidney) expressing human orexin 1 or human orexin 2 receptors, were washed with HEPES (10 mM, pH 7.5), scraped off the culture plates with the same buffer, and centrifuged at 4° C. for 5 min at 2500×g. The cell pellet was either stored at −80° C. or used directly. Before the experiments, cell membranes were re-suspended in binding assay buffer (10 mM HEPES, 0.5% (w/v) bovine serum albumin, pH 7.5) by homogenisation with a Polytron homogeniser at 50 Hz for 20 s. Cell membranes were also used as made available by commercial providers.
(§3) Bound radioactivity was measured, and data were analysed with the program XLFIT or Graphpad Prism. Protein concentration was determined according to the Bradford/BioRad Protein Assay Kit.
(§4) In competition experiments, cell homogenates (150 μl) were incubated in assay buffer (10 mM HEPES, pH 7.5, 0.5% (w/v) bovine serum albumin, 5 mM MgCl2, 1 mMCaCl2, and tween 0.05%) for 1 h at room temperature with about 1 nM of the radioligand [^3H]-SB649868, 66 Ci/mmole, 50 μl), and with various concentrations of compounds of the invention (50 μl) in triplicates; non-specific binding was determined in the presence of almorexant (10 μM). Reactions were terminated by vacuum filtration, 3 washes of ice cold wash buffer (Tris-HCl pH 7.4/10 mM, with NaCl 154 mM). Competition data is expressed in Table 1 as Kd [μM].

[2] = biological target: T2, human orexin 2 receptor (Homo sapiens, UniProt O43614); assay: Radioligand binding assay ([3H]-SB649868 competition), human orexin 2 receptor; conditions: radioligand [3H]-SB649868; read-out: Binding hOx2R Kd
T2 construct: expressed in transfected cells
T2 sequence (O43614 1-444): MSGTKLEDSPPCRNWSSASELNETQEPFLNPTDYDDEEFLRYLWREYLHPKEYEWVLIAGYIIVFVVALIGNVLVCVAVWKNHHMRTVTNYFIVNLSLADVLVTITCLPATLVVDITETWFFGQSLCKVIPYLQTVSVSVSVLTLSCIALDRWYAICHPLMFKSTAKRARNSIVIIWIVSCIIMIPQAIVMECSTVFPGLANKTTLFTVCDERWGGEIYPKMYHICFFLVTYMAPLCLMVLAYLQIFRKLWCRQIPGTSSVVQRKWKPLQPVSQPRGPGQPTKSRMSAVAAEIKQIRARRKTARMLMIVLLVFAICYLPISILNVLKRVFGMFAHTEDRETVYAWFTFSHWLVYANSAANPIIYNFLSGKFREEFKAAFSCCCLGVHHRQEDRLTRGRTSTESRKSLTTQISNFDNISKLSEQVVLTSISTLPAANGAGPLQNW
Experimental: as §1, §2, §3, §4

[3] = biological target: T1, human orexin 1 receptor; assay: Calcium accumulation in cells (FLIPR), antagonism of orexin A, human orexin 1 receptor; format: cell-based; conditions: for Ki: calcium accumulation, antagonism of orexin A, Cheng-Prusoff corrected, read-out: FLIPR hOx1R Ki; for inhibition at 10 µM: measured at a concentration of 10 μM of compound, read-out: FLIPR hOx1R % inhibition
[4] = biological target: T2, human orexin 2 receptor; assay: Calcium accumulation in cells (FLIPR), antagonism of orexin A, human orexin 2 receptor; format: cell-based; conditions: calcium accumulation, antagonism of orexin A, Cheng-Prusoff corrected; read-out: FLIPR hOx2R Ki

SMILES	Kd [1]	Kd [2]	Ki [3]	Ki [4]	inhibition at 10 µM [3]
COc1cccc(-c2nn(C)nc2CN2CCNC3(CCN(c4nc(C)cc(C)n4)CC3)C2=O)c1 [Example 1.5, 9-(4,6-Dimethylpyrimidin-2-yl)-4-((5-(3-methoxyphenyl)-2-methyl-2H-1,2,3-triazol-4-yl)methyl)-1,4,9-triazaspiro[5.5] undecan-5-one]	928 nM	31 nM	1490 nM	7 nM	–
COc1cc(C)nc(N2CCC3(CC2)NCCN(Cc2c[nH]c4ccccc24)C3=O)n1 [Example 1.8, 4-((1H-Indol-3-yl)methyl)-9-(4-methoxy-6-methylpyrimidin-2-yl)-1,4,9-triazaspiro[5.5] undecan-5-one]	679 nM	19 nM	906 nM	8 nM	–
COc1cccc(-c2ocnc2CN2CCNC3(CCN(c4nc(C)cc(C)n4)CC3)C2=O)c1 [Example 1.9, 9-(4,6-Dimethylpyrimidin-2-yl)-4-((5-(3-methoxyphenyl)oxazol-4-yl)methyl)-1,4,9-triazaspiro[5.5] undecan-5-one]	397 nM	25 nM	230 nM	4 nM	–
COc1cccc(-c2ocnc2CN2CCNC3(CCN(c4nccc(C)n4)CC3)C2=O)c1 [Example 1.10, 4-((5-(3-Methoxyphenyl)oxazol-4-yl)methyl)-9-(4-methyl-pyrimidin-2-yl)-1,4,9-triazaspiro[5.5] undecan-5-one]	3970 nM	164 nM	2610 nM	84 nM	–
COc1cccc(-c2ocnc2CN2CCNC3(CCN(c4nc(C)cc(C#N)n4)CC3)C2=O)c1 [Example 1.11, 2-(4-((5-(3-Methoxyphenyl)oxazol-4-yl)methyl)-5-oxo-1,4,9-triazaspiro[5.5]undecan-9-yl)-6-methylpyrimidine-4-carbonitrile]	2220 nM	37 nM	2660 nM	10 nM	–
COc1cccc(-c2ocnc2CN2CCNC3(CCN(c4nccc(OC)n4)CC3)C2=O)c1 [Example 1.12, 4-((5-(3-Methoxyphenyl)oxazol-4-yl)methyl)-9-(4-methoxy-pyrimidin-2-yl)-1,4,9-triazaspiro[5.5] undecan-5-one]	686 nM	230 nM	621 nM	65 nM	–
COc1cccc(-c2ocnc2CN2CCNC3(CCN(c4nc(C)cc(OC)n4)CC3)C2=O)c1 [Example 1.13, 9-(4-Methoxy-6-methylpyrimidin-2-yl)-4-((5-(3-methoxyphenyl)oxazol-4-yl)methyl)-1,4,9-triazaspiro[5.5] undecan-5-one]	82 nM	200 nM	37 nM	3 nM	–
COc1cccc(-c2oc(C)nc2CN2CCNC3(CCN(c4nc(C)cc(C)n4)CC3)C2=O)c1 [Example 1.14, 9-(4,6-Dimethylpyrimidin-2-yl)-4-((5-(3-methoxyphenyl)-2-methyloxazol-4-yl)methyl)-1,4,9-triazaspiro[5.5] undecan-5-one]	445 nM	22 nM	298 nM	2 nM	–
COc1cccc(-c2oc(C)nc2CN2CCNC3(CCN(c4nccc(OC)n4)CC3)C2=O)c1 [Example 1.17, 4-((5-(3-Methoxyphenyl)-2-methyloxazol-4-yl)methyl)-9-(4-methoxypyrimidin-2-yl)-1,4,9-triazaspiro[5.5] undecan-5-one]	2350 nM	251 nM	2090 nM	92 nM	–
COc1cccc(-c2oc(C)nc2CN2CCNC3(CCN(c4nc(C)cc(OC)n4)CC3)C2=O)c1 [Example 1.18, 9-(4-Methoxy-6-methylpyrimidin-2-yl)-4-((5-(3-methoxyphenyl)-2-methyloxazol-4-yl)methyl)-1,4,9-triazaspiro[5.5] undecan-5-one]	219 nM	23 nM	119 nM	3 nM	–
COc1cccc(-c2sc(C)nc2CN2CCNC3(CCN(c4nc(C)cc(C)n4)CC3)C2=O)c1 [Example 1.24, 9-(4,6-Dimethyl-pyrimidin-2-yl)-4-((5-(3-methoxyphenyl)-2-methylthiazol-4-yl)methyl)-1,4,9-triazaspiro[5.5] undecan-5-one]	924 nM	35 nM	766 nM	10 nM	–
COc1cccc(-c2sc(C)nc2CN2CCNC3(CCN(c4nc(C)cc(OC)n4)CC3)C2=O)c1 [Example 1.26, 9-(4-Methoxy-6-methylpyrimidin-2-yl)-4-((5-(3-methoxyphenyl)-2-methylthiazol-4-yl)methyl)-1,4,9-triazaspiro[5.5] undecan-5-one]	352 nM	49 nM	391 nM	8 nM	–
COCc1cccc(-c2ocnc2CN2CCNC3(CCN(c4nc(C)cc(C)n4)CC3)C2=O)c1 [Example 1.27, 9-(4,6-Dimethyl-pyrimidin-2-yl)-4-((5-(3-(methoxymethyl)phenyl)oxazol-4-yl)methyl)-1,4,9-triazaspiro[5.5] undecan-5-one]	5140 nM	140 nM	–	94 nM	34%
COCc1cccc(-c2ocnc2CN2CCNC3(CCN(c4nc(C)cc(OC)n4)CC3)C2=O)c1 [Example 1.29, 9-(4-Methoxy-6-methylpyrimidin-2-yl)-4-((5-(3-(methoxymethyl)phenyl)oxazol-4-yl)methyl)-1,4,9-triazaspiro[5.5] undecan-5-one]	1320 nM	100 nM	1430 nM	75 nM	–
COCc1cccc(-c2oc(C)nc2CN2CCNC3(CCN(c4nc(C)cc(C)n4)CC3)C2=O)c1 [Example 1.30, 9-(4,6-Dimethyl-pyrimidin-2-yl)-4-((5-(3-(methoxymethyl)phenyl)-2-methyl-oxazol-4-yl)methyl)-1,4,9-triazaspiro[5.5] undecan-5-one]	2140 nM	114 nM	–	29 nM	51%
COc1cccc(-c2cn(C)nc2CN2CCNC3(CCN(c4nc(C)cc(C)n4)CC3)C2=O)c1 [Example 1.33, 9-(4,6-Dimethyl-pyrimidin-2-yl)-4-((4-(3-methoxyphenyl)-1-methyl-1H-pyrazol-3-yl)methyl)-1,4,9-triazaspiro[5.5] undecan-5-one]	1620 nM	42 nM	1530 nM	6 nM	–
COc1ccc2[nH]cc(CN3CCNC4(CCN(c5nc(C)cc(C)n5)CC4)C3=O)c2c1 [Example 1.34, 9-(4,6-Dimethyl-pyrimidin-2-yl)-4-((5-methoxy-1H-indol-3-yl)methyl)-1,4,9-triazaspiro[5.5] undecan-5-one]	234 nM	4 nM	494 nM	1 nM	–
COc1cccc(-c2n[nH]nc2CN2CCNC3(CCN(c4nc(C)cc(C)n4)CC3)C2=O)c1 [Example 1.39, 9-(4,6-Dimethyl-pyrimidin-2-yl)-4-((5-(3-methoxy-phenyl)-2H-1,2,3-triazol-4-yl)methyl)-1,4,9-triazaspiro[5.5] undecan-5-one]	231 nM	13 nM	304 nM	2 nM	–
Cc1cc(C#N)nc(N2CCC3(CC2)NCCN(Cc2c[nH]c4ccccc24)C3=O)n1 [Example 1.40, 2-(4-((1H-Indol-3-yl)methyl)-5-oxo-1,4,9-triazaspiro[5.5]undecan-9-yl)-6-methylpyrimidine-4-carbonitrile]	5300 nM	79 nM	2810 nM	20 nM	–
